# According to patent US6368529B1, “Lignocellulosic composite” (U.S. Borax Inc., priority 2000, dated 2002):
# Columns and labels:
# [1] = Bulk solids flow testing, J. R. Johanson Indicizer System; assay type: physicochemical
# Text: Bulk solids flow testing was done using the J. R. Johanson Indicizer System, including a Hang-up Indicizer and Hopper Indicizer, manufactured by J R Johanson, Inc. 712 Fiero Lane #37, San Luis Obispo, Calif. 93401. The test procedures are described in detail in their company literature (BULK SOLIDS INDICES TESTING, Hang-up Indicizer™ Instruction Manual ©JR Johanson, Inc. 1991 and BULK SOLIDS INDICES TESTING, Hopper Indicizer™ Instruction Manual ©JR Johanson, Inc. 1991). The results are presented in the following Table 3 as the Arching Index, Ratholing Index, Hopper Index and Chute Index, which are the average of several tests (3-6). The meaning and usefulness of these flow indices in evaluating the flow properties of bulk solids are also described in literature from JR Johanson, Inc., including Binside Scoop™, Vol. 7, No. 2, Fall 1994, Binside Scoop™, Vol. 8, No. 3, Winter 1995, and “Bulk solids Flow Indices—A Simplified Evaluation system”, by Jerry R. Johanson, ©JR Johanson, 1991.
# Arching Index—A tendency of a cohesive material is to plug up the opening of a bin by forming an “arch” over the discharge opening. The arching index is given as a multiple of the discharge opening, so less than 1 is necessary for free flow. Numbers greater than 1 reflect a need to enlarge the opening.
# Ratholing Index—A tendency of a cohesive material is to hang up on the sides of a bin while an open hole forms in the center and flow ceases. Rathole indices are also given as a multiple of the discharge opening and a number of less than 1 is necessary for free flow. Numbers greater than 1 mean the bins should be redesigned.
# Hopper Index—The maximum angle, measured in degrees from the vertical, that is required for the conical portion of a hopper in order to produce reliable mass flow. A larger number is better.
# Chute Index—The minimum angle, measured in degrees from horizontal, required for flow down a chute and to prevent material buildup at impact areas. A smaller number is better. Chute indices may often be close to the angle of repose.
# Both hopper and chute indices measurements involve friction over a specified surface and measurements are made using substrates of the material of construction. The substrates used for these tests are 304-2B Stainless Steel, aged carbon steel and Tivar UHMWPE (ultra high molecular weight polyethylene) plastic.
# [2] = tested on: Gloeophyllum trabeum (ATCC 11539); test: Soil block decay test (AWPA E10-87), brown rot; assay type: cell-based
# Text: (§1) Wood flakeboard was manufactured by conventional wood processing techniques, incorporating various borates at a range of concentrations, from 0.5 to 2.0% boric acid equivalent (BAE). Boric acid (H3BO3) equivalent is a commonly used convention for comparing various borates on an equivalent contained-boron basis. For each borate/loading combination, fifteen pounds of aspen (Populus tremuloides) furnish having an average particle size of about 2.5×0.75×0.025 inches, was blended with 0.75 pounds (5%) Rubinate 1840 (product of ICI), a polymeric methylene diphenyl diisocyanate adhesive, 0.11 pounds (0.75%) of Cascowax EW 403HS (product of Borden) and various concentrations of nine test borates. For each borate/loading combination, three 18″×18″ composite boards of 0.5 inch thickness were formed by pressing for 210 seconds at (180 seconds pressure, 30 seconds pressure release) at 204.5° C. (the pressure was kept in excess of 6000 psi during the pressure cycle). Each board was trimmed to 15″×15″ and cut to produce internal bond and analytical/soil block specimens for evaluation. Replicates were cut from the inner portion of the boards. Four internal bond, two leaching panels and twenty analytical/soil block specimens were cut from each board.
# (§2) The panels to be leached (4.5″×4.5″) were edge sealed with an epoxy sealant and leached for two weeks. Leaching began with pressure treatment of the specimens with water for 30 minutes under vacuum and one hour under pressure. The specimens were removed from the pressure treatment chamber and the residual water was changed after two hours, then daily for the remainder of the leaching period. Afterward, they were trimmed to remove the sealed edges and cut into analytical/soil block test samples. Unleached and leached analytical/soil block samples for each board type were separately randomized. Fifteen were analyzed for borate content and ten were retained for the soil block decay test.
# (§3) The soil block test was conducted in accordance with AWPA E10-87, with the exception that soil block dimensions were 1.0″×1.0″×0.5″. The fungi used were Gloeophyllum trabeum (ATCC 11539) for brown rot test and Trametes versicolor (MAD 697) for white rot test. An untreated composite control was run both unleached and leached. Solid southern yellow pine and birch were also run as unleashed controls against G. trabeum and T. versicolor, respectively as a test of fungal vigor.
# [3] = tested on: Trametes versicolor (MAD 697); test: Soil block decay test (AWPA E10-87), white rot; assay type: cell-based
# Text: as §1, §2, §3
# [4] = Borate content of composite after two weeks water leaching; assay type: physicochemical; details: leached two weeks
# Description: as §2
# [5] = multiple of the discharge opening, less than 1 necessary for free flow, average of 3-6 tests
# [6] = leached two weeks, target loading 0.5% BAE (0.09% B)
# [7] = leached two weeks, target loading 1.0% BAE (0.17% B)
# [8] = leached two weeks, target loading 2.0% BAE (0.35% B)
# [9] = unleached aspen flakeboard, target loading 0.5% BAE (0.09% B)
# [10] = unleached aspen flakeboard, target loading 1.0% BAE (0.17% B)
# [11] = unleached aspen flakeboard, target loading 2.0% BAE (0.35% B)
substance,measurement,setting,value
Nobleite,Hopper Index Stainless Steel,"[1]; 304-2B Stainless Steel, maximum angle from the vertical, larger is better",16 degrees
same,Chute Index Stainless Steel,"[1]; 304-2B Stainless Steel, minimum angle from horizontal, smaller is better",45 degrees
same,Hopper Index Plastic,"[1]; Tivar UHMWPE plastic, maximum angle from the vertical, larger is better",17 degrees
same,Chute Index Plastic,"[1]; Tivar UHMWPE plastic, minimum angle from horizontal, smaller is better",41 degrees
same,Hopper Index Carbon Steel,"[1]; aged carbon steel, maximum angle from the vertical, larger is better",14 degrees
same,Chute Index Carbon Steel,"[1]; aged carbon steel, minimum angle from horizontal, smaller is better",47 degrees
same,"Flow properties, summary","[1]; compared with zinc borate, Colemanite F and Colemanite, Glass Grade",superior flow properties
same,Arching Index,[1]; [5],0.2
same,Ratholing Index,[1]; [5],0.5
same,Mean % Wt. Loss G. trabeum,[2]; [6],5.4%
same,Mean % Wt. Loss G. trabeum,[2]; [7],1.4%
same,Mean % Wt. Loss G. trabeum,[2]; [8],1.5%
same,Mean % Wt. Loss G. trabeum,[2]; [9],1.1%
same,Mean % Wt. Loss G. trabeum,[2]; [10],1.0%
same,Mean % Wt. Loss G. trabeum,[2]; [11],1.4%
same,Mean % Wt. Loss T. versicolor,[3]; [6],27.6%
same,Mean % Wt. Loss T. versicolor,[3]; [7],11.6%
same,Mean % Wt. Loss T. versicolor,[3]; [8],10.1%
same,Mean % Wt. Loss T. versicolor,[3]; [9],5.3%
same,Mean % Wt. Loss T. versicolor,[3]; [10],3.6%
same,Mean % Wt. Loss T. versicolor,[3]; [11],2.6%
same,Assay % B,[4]; target loading 0.5% BAE (0.09% B),0.03 % B
same,Assay % B,[4]; target loading 1.0% BAE (0.17% B),0.06 % B
same,Assay % B,[4]; target loading 2.0% BAE (0.35% B),0.09 % B
